Measurements: PMC8922279, “Identification of β-Lactams Active against Mycobacterium tuberculosis by a Consortium of Pharmaceutical Companies and Academic Institutions” (ACS Infectious Diseases, 2022)
Where two headings read alike, the source gives them in different places.

Legend:
[1] = system: wild-type Mtb H37Rv; type: in vivo, 129sv DHP-1 knockout mice; conditions: for Log10 CFU per mouse (lungs), Mean: 50 mg/kg sc bid + clavulanate 100 mg/kg po bid, days 9-15, lungs day 16, untreated day 16 mean 9.1
[2] = female, 129sv DHP-1 knockout, mouse, in vivo
[3] = in vivo; conditions: female, 129sv DHP-1 knockout, mouse, sc, 50 mg/kg
[4] = in vivo; conditions: DHP-1 knockout, mouse, sc, 300 mg/kg
[5] = in vitro; conditions: SD, rat, plasma, pH 7.4, % bound to plasma
[6] = in vitro; conditions: human
[7] = system: Mtb H37Rv; experiment: MIC90 against replicating (R) Mtb H37Rv, with or without clavulanate; type: cell-based, Mycobacterium tuberculosis; conditions: Table S4
[8] = system: S. aureus; experiment: Microbial spectrum, S. aureus; type: cell-based, Staphylococcus aureus; conditions: clavulanate 4 μg/mL; Table S4
[9] = system: Mtb H37Rv; experiment: MIC90 against nonreplicating (NR, 4-stress) Mtb H37Rv, with or without clavulanate; type: cell-based, Mycobacterium tuberculosis; conditions: 4-stress nonreplicating, Table S4
[10] = system: Caco-2 cells
[11] = in vitro; conditions: human, plasma, Plasma stability % Remaining
[12] = in vivo; conditions: female, CD-1, mouse
[13] = system: P. aeruginosa; experiment: Microbial spectrum, P. aeruginosa; type: cell-based, Pseudomonas aeruginosa; conditions: clavulanate 4 μg/mL; Table S4
[14] = in vitro; conditions: beagle, dog, plasma, pH 7.4
[15] = physchem; conditions: simulated gi fluid, pH 6.5, FaSSIF Stability, % remaining
[16] = system: E. coli; experiment: Microbial spectrum, E. coli; type: cell-based, Escherichia coli; conditions: clavulanate 4 μg/mL; Table S4
[17] = in vitro; conditions: CD-1, mouse, plasma, pH 7.4, % bound to plasma
[18] = system: HepG2 cells; experiment: Cytotoxicity against HepG2 cells (CellTiter-Glo); type: cell-based, human; conditions: Table S4
Procedure: Compounds were tested for cytotoxicity against HepG2 cells as previously described.[48],[69],[70] Briefly, cells were exposed to compounds for 48–72 h, and viability was measured using CellTiter-Glo (Promega).

[19] = in vitro; conditions: beagle, dog, plasma
[20] = 300 mg/kg sc, uninfected DHP-1 mice
[21] = in vitro; conditions: monkey, plasma
[22] = in vitro; conditions: SD, rat, plasma, Plasma stability % Remaining
[23] = system: C. albicans; experiment: Microbial spectrum, C. albicans; type: cell-based, Candida albicans; conditions: no clavulanate; Table S4
[24] = in vitro; conditions: cynomolgus monkey, plasma, pH 7.4
[25] = in vitro; conditions: human, plasma, pH 7.4, % bound to plasma
[26] = in vitro; conditions: male, CD-1, mouse, plasma, Plasma stability % Remaining
[27] = physchem; conditions: simulated gi fluid, pH 1.2

Structure (SMILES): C=CC1=C(C(=O)O)N2C(=O)[C@@H](NC(=O)/C(=N\O)c3csc(N)n3)[C@H]2SC1 [Cefdinir, reference compound]
- Log10 CFU per mouse (lungs), Mean [1]: 8.5 Log10 CFU
- effect on lung CFU (in words) ([1]; mouse, in vivo): lower lung CFU count compared to untreated mice
- Tlast [2]: 1.0 h
- AUC(0-t) [3]: 4630 ng·h/mL
- Cmax [3]: 8730 ng/mL
- Tmax [3]: 30 min

Structure (SMILES): O=C(CCCC(NC(=O)c1ccc(Cl)cc1Cl)C(=O)O)N[C@@H]1C(=O)N2C(C(=O)O)=C(CSc3cccc[n+]3[O-])CS[C@H]12 (some centres unmarked) [TBBL-0000552]
- AUC(0-t) [4]: 61900 ± 24900 ng·h/mL
- Cmax [4]: 29900 ± 11000 ng/mL
- Tmax [4]: 60 to 120 min
- fraction unbound at 4 h, 2 μM [5]: 0.109
- Papp A→B at 120 min, 3 μM ([6]; Caco-2, pH 7.4): < 0.43 ×10⁻⁶ cm/s
- Papp B→A at 120 min, 3 μM ([6]; Caco-2, pH 7.4): 0.38 ×10⁻⁶ cm/s
- recovery at 120 min, 3 μM ([6]; Caco-2, pH 7.4, Caco-2 Mean Recovery % A to B): < 106%
- recovery at 120 min, 3 μM ([6]; Caco-2, pH 7.4, Caco-2 Mean Recovery % B to A): 123%
- Mtb H37Rv R + CLAV (MIC90) ([7]; clavulanate 4 μg/mL): 2.9 µM
- Mtb H37Rv R (MIC90) ([7]; no clavulanate): 2.8 µM
- S.aureus R + CLAV (MIC90) [8]: > 100 µM
- Mtb H37Rv NR + CLAV (MIC90) ([9]; clavulanate 4 μg/mL): 2.1 µM
- Mtb H37Rv NR (MIC90) ([9]; no clavulanate): 1.9 µM
- Caco-2 Rank Papp [10]: Low
- remaining at 2 h, 2 μM [11]: 78.6%
- AUC(0-t) ([12]; iv, 5 mg/kg): 7570 ng·h/mL
- Vd ([12]; iv, 5 mg/kg): 0.74 L/kg
- clearance ([12]; iv, 5 mg/kg): 11 mL/min/kg
- half-life ([12]; iv, 5 mg/kg): 46.8 min
- k el ([12]; iv, 5 mg/kg): 0.000247 s⁻¹
- AUC(0-t) ([12]; po, 25 mg/kg): 42 ng·h/mL
- bioavailability ([12]; po, 25 mg/kg): 0.11%
- P.aeruginosa R + CLAV (MIC90) [13]: > 100 µM
- fraction unbound at 4 h, 2 μM [14]: 0.417
- remaining at 6 h, 10 μM ([15]; 6h): 111%
- remaining at 24 h, 10 μM ([15]; 24h): 106%
- E.coli R + CLAV (MIC90) [16]: 92.6 µM
- fraction unbound at 4 h, 2 μM [17]: 0.439
- HepG2 LD50 [18]: 74.3 µM
- remaining at 2 h, 2 μM [19]: 77.9%
- Tlast [20]: 4.0 h
- remaining at 2 h, 2 μM [21]: 119%
- remaining at 2 h, 2 μM [22]: 77.8%
- C.albicans R (MIC90) [23]: > 100 µM
- fraction unbound at 4 h, 2 μM [24]: 0.198
- fraction unbound at 4 h, 2 μM [25]: 0.143
- remaining at 2 h, 2 μM [26]: 89.4%
- Log10 CFU per mouse (lungs), Mean [1]: 9.4 Log10 CFU
- Tlast [2]: 3.0 h
- remaining at 1 h, 10 μM [27]: 105%
- remaining at 24 h, 10 μM [27]: 61.5%
- AUC(0-t) [3]: 3660 ng·h/mL
- Cmax [3]: 6190 ng/mL
- Tmax [3]: 30 min
